Measurements as given in ChEMBL document CHEMBL3994622, “Design and synthesis of new RAF kinase-inhibiting antiproliferative quinoline derivatives. Part 2: Diarylurea derivatives” (Eur J Med Chem, 2017).

Tests used:
Type in all cases: functional
SNB-19 [1] = assay: Growth inhibition of human SNB19 cells assessed as cell growth at 0.003 uM incubated for 48 hrs by sulforhodamine B assay relative to control; settings: SNB-19, 48 h, read-out: Activity
OVCAR-5 [2] = assay: Growth inhibition of human OVCAR5 cells assessed as cell growth at 0.03 uM incubated for 48 hrs by sulforhodamine B assay relative to control; settings: OVCAR-5, 48 h, read-out: Activity
NCI-H23 = assay: Growth inhibition of human NCI-H23 cells assessed as cell growth at 0.003 uM incubated for 48 hrs by sulforhodamine B assay relative to control; settings: NCI-H23, 48 h, read-out: Activity
UACC-257 [3] = assay: Growth inhibition of human UACC257 cells assessed as cell growth at 0.03 uM incubated for 48 hrs by sulforhodamine B assay relative to control; settings: UACC-257, 48 h, read-out: Activity
SK-MEL-5 [4] = assay: Growth inhibition of human SK-MEL-5 cells assessed as cell growth at 3 uM incubated for 48 hrs by sulforhodamine B assay relative to control; settings: SK-MEL-5, 48 h, read-out: Activity
A498 = assay: Growth inhibition of human A498 cells assessed as cell growth at 3 uM incubated for 48 hrs by sulforhodamine B assay relative to control; settings: A498, 48 h, read-out: Activity
IGROV-1 = assay: Growth inhibition of human IGROV1 cells assessed as cell growth at 30 uM incubated for 48 hrs by sulforhodamine B assay relative to control; settings: IGROV-1, 48 h, read-out: Activity
Malme-3M = assay: Growth inhibition of human MALME-3M cells assessed as cell growth at 0.003 uM incubated for 48 hrs by sulforhodamine B assay relative to control; settings: read-out: Activity
UACC-257 [5] = assay: Growth inhibition of human UACC257 cells assessed as cell growth at 0.003 uM incubated for 48 hrs by sulforhodamine B assay relative to control; settings: UACC-257, 48 h, read-out: Activity
SF-268 = assay: Growth inhibition of human SF268 cells assessed as cell growth at 0.003 uM incubated for 48 hrs by sulforhodamine B assay relative to control; settings: SF-268, 48 h, read-out: Activity
SN12C = assay: Growth inhibition of human SN12C cells assessed as cell growth at 30 uM incubated for 48 hrs by sulforhodamine B assay relative to control; settings: read-out: Activity
OVCAR-5 [6] = assay: Growth inhibition of human OVCAR5 cells assessed as cell growth at 0.003 uM incubated for 48 hrs by sulforhodamine B assay relative to control; settings: OVCAR-5, 48 h, read-out: Activity
OVCAR-8 = assay: Growth inhibition of human OVCAR8 cells assessed as cell growth at 30 uM incubated for 48 hrs by sulforhodamine B assay relative to control; settings: OVCAR-8, 48 h, read-out: Activity
OVCAR-4 = assay: Growth inhibition of human OVCAR4 cells assessed as cell growth at 30 uM incubated for 48 hrs by sulforhodamine B assay relative to control; settings: OVCAR-4, 48 h, read-out: Activity
MOLT-4 = assay: Growth inhibition of human MOLT4 cells assessed as cell growth at 0.03 uM incubated for 48 hrs by sulforhodamine B assay relative to control; settings: MOLT-4, 48 h, read-out: Activity
RPMI-8226 = assay: Growth inhibition of human RPMI8226 cells assessed as cell growth at 0.03 uM incubated for 48 hrs by sulforhodamine B assay relative to control; settings: RPMI-8226, 48 h, read-out: Activity
KM12 = assay: Growth inhibition of human KM12 cells assessed as cell growth at 30 uM incubated for 48 hrs by sulforhodamine B assay relative to control; settings: KM12, 48 h, read-out: Activity
786-0 = assay: Growth inhibition of human 786-0 cells assessed as cell growth at 0.003 uM incubated for 48 hrs by sulforhodamine B assay relative to control; settings: 786-0, 48 h, read-out: Activity
A549 = assay: Growth inhibition of human A549/ATCC cells assessed as cell growth at 0.1 uM incubated for 48 hrs by sulforhodamine B assay relative to control; settings: A549, 48 h, read-out: Activity
UO-31 = assay: Growth inhibition of human UO31 cells assessed as cell growth at 100 uM incubated for 48 hrs by sulforhodamine B assay relative to control; settings: UO-31, 48 h, read-out: Activity
SK-MEL-5 [7] = assay: Growth inhibition of human SK-MEL-5 cells assessed as cell growth at 0.01 uM incubated for 48 hrs by sulforhodamine B assay relative to control; settings: SK-MEL-5, 48 h, read-out: Activity
LOX IMVI = assay: Growth inhibition of human LOXIMVI cells assessed as cell growth at 10 uM incubated for 48 hrs by sulforhodamine B assay relative to control; settings: read-out: Activity
SK-MEL-5 [8] = assay: Growth inhibition of human SK-MEL-5 cells assessed as cell growth at 10 uM incubated for 48 hrs by sulforhodamine B assay relative to control; settings: SK-MEL-5, 48 h, read-out: Activity
M14 = assay: Growth inhibition of human M14 cells assessed as cell growth at 0.1 uM incubated for 48 hrs by sulforhodamine B assay relative to control; settings: M14, 48 h, read-out: Activity
EKVX = assay: Growth inhibition of human EKVX cells assessed as cell growth at 1 uM incubated for 48 hrs by sulforhodamine B assay relative to control; settings: read-out: Activity
SR = assay: Growth inhibition of human SR cells assessed as cell growth at 0.1 uM incubated for 48 hrs by sulforhodamine B assay relative to control; settings: read-out: Activity
MDA-MB-231 = assay: Growth inhibition of human MDA-MB-231 cells assessed as cell growth at 1 uM incubated for 48 hrs by sulforhodamine B assay relative to control; settings: MDA-MB-231, 48 h, read-out: Activity
SK-MEL-28 = assay: Growth inhibition of human SK-MEL-28 cells assessed as cell growth at 10 uM incubated for 48 hrs by sulforhodamine B assay relative to control; settings: SK-MEL-28, 48 h, read-out: Activity
CAKI-1 = assay: Growth inhibition of human Caki1 cells assessed as cell growth at 1 uM incubated for 48 hrs by sulforhodamine B assay relative to control; settings: CAKI-1, 48 h, read-out: Activity
SNB-19 [9] = assay: Growth inhibition of human SNB19 cells assessed as cell growth at 0.01 uM incubated for 48 hrs by sulforhodamine B assay relative to control; settings: SNB-19, 48 h, read-out: Activity
MCF7 = assay: Growth inhibition of human MCF7 cells assessed as cell growth at 0.01 uM incubated for 48 hrs by sulforhodamine B assay relative to control; settings: MCF7, 48 h, read-out: Activity
NCI-H322M = assay: Growth inhibition of human NCI-H322M cells assessed as cell growth at 10 uM incubated for 48 hrs by sulforhodamine B assay relative to control; settings: read-out: Activity
SF-539 = assay: Growth inhibition of human SF539 cells assessed as cell growth at 1 uM incubated for 48 hrs by sulforhodamine B assay relative to control; settings: SF-539, 48 h, read-out: Activity
NCI-H460 = assay: Growth inhibition of human NCI-H460 cells assessed as cell growth at 0.01 uM incubated for 48 hrs by sulforhodamine B assay relative to control; settings: NCI-H460, 48 h, read-out: Activity

| Structure (SMILES) | growth at 0.003 µM (SNB-19 [1]) | growth at 0.03 µM (OVCAR-5 [2]) | growth at 0.003 µM (NCI-H23) | growth at 0.03 µM (UACC-257 [3]) | growth at 3 µM (SK-MEL-5 [4]) | growth at 3 µM (A498) | growth at 30 µM (IGROV-1) | growth at 0.003 µM (Malme-3M) | growth at 0.003 µM (UACC-257 [5]) | growth at 0.003 µM (SF-268) | growth at 30 µM (SN12C) | growth at 0.003 µM (OVCAR-5 [6]) | growth at 30 µM (OVCAR-8) | growth at 30 µM (OVCAR-4) | growth at 0.03 µM (MOLT-4) | growth at 0.03 µM (RPMI-8226) | growth at 30 µM (KM12) | growth at 0.003 µM (786-0) | growth at 0.1 µM (A549) | growth at 100 µM (UO-31) | other results |
| --- | --- | --- | --- | --- | --- | --- | --- | --- | --- | --- | --- | --- | --- | --- | --- | --- | --- | --- | --- | --- | --- |
| COc1cc2cc(Oc3ccc(NC(=O)Nc4ccc(Cl)c(C(F)(F)F)c4)cc3)c(C)nc2cc1OC | 94% | 102% | 97% | 86% | -20% | 1% | -42% | 98% | 94% | 95% | -56% | 96% | -32% | -62% | 96% | 98% | -84% | 97% | – | – | – |
| COc1cc2cc(Oc3ccc(NC(=O)Nc4ccc(Cl)c(Cl)c4)cc3)c(C)nc2cc1OC | – | – | – | – | – | – | – | – | – | – | – | – | – | – | – | – | – | – | 94% | -57% | growth at 0.01 µM (SK-MEL-5 [7]): 103%; growth at 10 µM (LOX IMVI): 20%; growth at 10 µM (SK-MEL-5 [8]): -9%; growth at 0.1 µM (M14): 97%; growth at 1 µM (EKVX): 81%; growth at 0.1 µM (SR): 108%; growth at 1 µM (MDA-MB-231): 77%; growth at 10 µM (SK-MEL-28): 16%; growth at 1 µM (CAKI-1): 83%; growth at 0.01 µM (SNB-19 [9]): 94%; growth at 0.01 µM (MCF7): 95%; growth at 10 µM (NCI-H322M): 47%; growth at 1 µM (SF-539): 103%; growth at 0.01 µM (NCI-H460): 105% |
| COc1cc2cc(Oc3ccc(NC(=O)Nc4cc(C(F)(F)F)cc(C(F)(F)F)c4)cc3)c(C)nc2cc1OC | – | – | – | – | – | – | – | – | – | – | – | – | – | – | – | – | – | – | 99% | -89% | growth at 0.01 µM (SK-MEL-5 [7]): 100%; growth at 10 µM (LOX IMVI): -84%; growth at 10 µM (SK-MEL-5 [8]): -79%; growth at 0.1 µM (M14): 97%; growth at 1 µM (EKVX): 50%; growth at 0.1 µM (SR): 97%; growth at 1 µM (MDA-MB-231): 55%; growth at 10 µM (SK-MEL-28): -61%; growth at 1 µM (CAKI-1): 63%; growth at 0.01 µM (SNB-19 [9]): 95%; growth at 0.01 µM (MCF7): 85%; growth at 10 µM (NCI-H322M): -85%; growth at 1 µM (SF-539): 73%; growth at 0.01 µM (NCI-H460): 105% |
| Cc1nc2cc(O)c(O)cc2cc1Oc1ccc(NC(=O)Nc2ccc(Cl)c(Cl)c2)cc1 | 94% | 100% | 96% | 86% | 85% | 79% | 17% | 99% | 85% | 100% | -3% | 102% | 1% | 9% | 111% | 98% | -1% | 98% | – | – | – |
